The numbers were not newly measured in patent US20050154016A1, “Preventives for hiv infection” (priority 2002, published 2005), which cites them from elsewhere.

The subject of this data set is R5 HIV-1. The following applies: reported in non-patent document 18.

As to `Cc1ccc(-c2ccc3c(c2)C=C(C(=O)Nc2ccc(C[N+](C)(C)C4CCOCC4)cc2)CCC3)cc1.[Cl-]` [TAK-779], the “inhibitory effect against HIV-1 infection caused by R5 HIV-1” value was “exhibits an inhibitory effect”.
